One experiment deals with T1, serotonin transporter (Rattus norvegicus, UniProt P31652).
T1 construct: frontal cortical membranes prepared from male Sprague-Dawley rats; from tissue; host or cells: rat frontal cortex membranes
Kind of experiment: serotonin transporter affinity, 3H-paroxetine binding, frontal cortical membranes. The following applies: for Ki: 3H-paroxetine 0.1 nM, read-out: ST (Ki, nM,). On the procedure: A protocol similar to that used by Cheetham et al., Neuropharmacol. […] Briefly, frontal cortical membranes prepared from male Sprague-Dawley rats were incubated with ^3H-paroxetine (0.1 nM) for 60 minutes at 25° C. […] All reactions are terminated by the addition of ice cold Tris buffer followed by rapid filtration using a Tom Tech filtration device to separate bound from free ^3H-paroxetine.

In experiment [1] the target is T2, human 5-HT1A receptor subtype (Homo sapiens, UniProt P08908).
T2 construct: expressed in transfected cells
T2 sequence (P08908 1-422): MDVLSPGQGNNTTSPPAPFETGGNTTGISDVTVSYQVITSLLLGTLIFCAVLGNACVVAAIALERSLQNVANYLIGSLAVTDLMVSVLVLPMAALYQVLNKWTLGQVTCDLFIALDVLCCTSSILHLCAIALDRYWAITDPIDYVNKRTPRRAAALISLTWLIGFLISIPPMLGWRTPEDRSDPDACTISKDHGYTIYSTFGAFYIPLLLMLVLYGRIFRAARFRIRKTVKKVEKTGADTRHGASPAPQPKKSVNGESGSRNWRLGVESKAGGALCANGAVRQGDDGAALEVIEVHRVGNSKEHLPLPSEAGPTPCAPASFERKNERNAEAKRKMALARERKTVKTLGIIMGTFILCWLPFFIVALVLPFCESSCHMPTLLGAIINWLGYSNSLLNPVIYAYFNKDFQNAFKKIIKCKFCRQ
Kind of experiment: 5-HT1A receptor binding, [3H]8-OH-DPAT, CHO cell membranes. The note with it: for Ki: [3H]8-OH-DPAT 1.5 nM; for 5-HT1A, value given as %: concentration not given. The protocol:
The PCR cloning of the human 5-HT1A receptor subtype from a human genomic library has been described previously Chanda et al., Mol. Pharmacol., 43:516 (1993). A stable Chinese hamster ovary cell line expressing the human 5-HT1A receptor subtype (5-HT1A.CH2O cells) was employed throughout this study. Cells were maintained in DMEM supplemented with 10% fetal calf serum, non-essential amino acids and penicillin/streptomycin.
Cells were grown to 95-100% confluency as a monolayer before membranes were harvested for binding studies. Cells were gently scraped from the culture plates, transferred to centrifuge tubes, and washed twice by centrifugation (2000 rpm for 10 min., 4° C.) in buffer (50 mM Tris; pH 7.5). The resulting pellets were aliquoted and placed at −80° C. On the day of assay, the cells were thawed on ice, and resuspended in buffer. Studies were conducted using [^3H]8-OH-DPAT as the radioligand. The binding assay was performed in 96 well microtiter plates in a final total volume of 250 μL of buffer. Competition experiments were performed by using 7 concentrations of unlabelled drug and a final ligand concentration of 1.5 nM. Non-specific binding was determined in the presence of 10 μM 5HT. Saturation analysis was conducted by using [^3H]8-OH-DPAT at concentaritions ranging from 0.3-30 nm Following a 30 minute incubation at room temperature, the reaction was terminated by the addition of ice cold buffer and rapid filtration using a M-96 Brandel Cell Harvester (Gaithersburg, Md.) through a GF/B filter presoaked for 30 minutes in 0.5% polyethylenenimine.

The values that follow come from US6465482B2, “Arylpiperazinyl-cyclohexyl indole derivatives for the treatment of depression” (Wyeth, priority 1999, dated 2002).

T1 sequence (P31652 whole entry): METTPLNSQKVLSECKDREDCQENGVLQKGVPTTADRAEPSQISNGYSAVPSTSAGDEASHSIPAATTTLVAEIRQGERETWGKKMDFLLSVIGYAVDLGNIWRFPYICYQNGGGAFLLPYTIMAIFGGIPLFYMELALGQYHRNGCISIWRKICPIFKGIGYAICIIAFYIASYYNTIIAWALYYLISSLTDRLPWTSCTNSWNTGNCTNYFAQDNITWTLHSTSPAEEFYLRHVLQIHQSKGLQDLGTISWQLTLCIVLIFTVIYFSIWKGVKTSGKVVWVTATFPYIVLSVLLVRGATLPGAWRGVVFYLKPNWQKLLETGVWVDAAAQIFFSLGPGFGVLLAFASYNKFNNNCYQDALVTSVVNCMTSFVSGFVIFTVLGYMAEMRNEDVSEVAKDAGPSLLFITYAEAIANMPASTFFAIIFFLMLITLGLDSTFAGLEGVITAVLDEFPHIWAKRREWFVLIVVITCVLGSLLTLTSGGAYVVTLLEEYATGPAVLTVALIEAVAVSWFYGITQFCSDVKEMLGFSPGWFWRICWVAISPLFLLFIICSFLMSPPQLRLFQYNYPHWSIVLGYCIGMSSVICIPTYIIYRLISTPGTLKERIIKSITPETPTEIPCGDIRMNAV

For `Fc1cc2c(c(N3CCN([C@H]4CC[C@@H](c5c[nH]c6ccc(F)cc65)CC4)CC3)c1)OCCC2` [Example 31a, 5-Fluoro-3-{(1,4-cis)-4-[4-(6-fuoro-chroman-8-yl)-piperazin-1-yl]-cyclohexyl}-1H-indole], the results for the Ki (on serotonin transporter; in experiment [1]) were 13 nM and 142 nM, respectively. With `N#Cc1ccc2[nH]cc([C@H]3CC[C@H](N4CCN(c5cc(F)cc6c5OCC6)CC4)CC3)c2c1` [Example 33b, 3-{(1,4-trans)-4-[4-(5-Fluoro-2,3-dihydro-benzofuran-7-yl)-piperazin-1-yl]-cyclohexyl}-1H-indole-5-carbonitrile], the Ki on serotonin transporter is 45 nM; in experiment [1], 19.2 nM. As to `Cn1ccc2c(N3CCN([C@H]4CC[C@@H](c5cn(C)c6ccc(C#N)cc65)CC4)CC3)cccc21` [Example 17, 1-Methyl-3-{(1,4-cis)-4-[4-(1-methyl-1H-indol-4-yl)-piperazin-1-yl]-cyclohexyl}-1H-indole-5-carbonitrile], the Ki on serotonin transporter came out at 2.5 nM. In addition, the “5-HT1A, value given as %” value in experiment [1] amounted to 0%. Take `Cn1cc([C@H]2CC[C@@H](N3CCN(c4cc(F)cc5c4OCC5)CC3)CC2)c2cc(C#N)ccc21` [Example 33c, 3-{(1,4-cis)-4-[4-(5-Fluoro-2,3-dihydro-benzofuran-7-yl)-piperazin-1-yl]-cyclohexyl}-1-methyl-1H-indole-5-carbonitrile]: the Ki at serotonin transporter worked out at 7.1 nM; in experiment [1] it was 431 nM. In the same order, the values of `COc1ccccc1C1CCN([C@H]2CC[C@@H](c3c[nH]c4ccc(F)cc43)CC2)CC1` [Example 19a, 5-Fluoro-3-{(1,4-cis)-4-[4-(2-methoxy-phenyl)-piperidin-1-yl]-cyclohexyl}-1H-indole] are 5.72 nM and 264 nM. In the case of `Cn1cc([C@H]2CC[C@@H](N3CCN(c4cccc5[nH]ccc45)CC3)CC2)c2cc(F)ccc21` [Example 38, 5-Fluoro-3-{cis-4-[4-(1H-indol-4-yl)-piperazinyl]-cyclohexyl}-1-methyl-1H-indole], the results for the Ki (at serotonin transporter; in experiment [1]) were 7.22 nM and 124 nM, respectively.

Consider `N#Cc1ccc2[nH]cc([C@H]3CC[C@@H](N4CCN(c5cccc6ccoc56)CC4)CC3)c2c1` [Example 34a], for which the Ki is 1.49 nM on serotonin transporter and 185 nM in experiment [1]. As to `COc1cc(N2CCN([C@H]3CC[C@@H](c4c[nH]c5ccc(C#N)cc54)CC3)CC2)c2ncccc2c1` [Example 44c, 3-{(1,4-cis)-4-[4-(6-Methoxy-quinolin-8-yl)-piperazin-1-yl]-cyclohexyl}-1H-indole-5-carbonitrile], the Ki at serotonin transporter came to 1.5 nM; in experiment [1] it was 21 nM. Take `N#Cc1ccc2c(c1)c([C@H]1CC[C@H](N3CCN(c4cccc5[nH]ccc45)CC3)CC1)cn2Cc1ccccc1` [Example 16b, 1-Benzyl-3-{(1,4-trans)-4-[4-(1H-indol-4-yl)-piperazin-1-yl]-cyclohexyl}-1H-indole-5-carbonitrile]: on serotonin transporter (100 nM), the “ST, % 100 nM” value worked out at 25%. Besides, in experiment [1] (100 nM), the “5-HT1A, % @ 100 nM” value is listed as 0% @. For `N#Cc1ccc2[nH]cc([C@H]3CC[C@H](N4CCN(c5cccc6ccoc56)CC4)CC3)c2c1` [Example 34b], the Ki is 17 nM on serotonin transporter and 8.37 nM in experiment [1]. On to `N#Cc1ccc2c(c1)c([C@H]1CC[C@@H](N3CCN(c4cccc5[nH]ccc45)CC3)CC1)cn2Cc1ccccc1` [Example 16a, 1-Benzyl-3-{(1,4-cis)-4-[4-(1H-indol-4-yl)-piperazin-1-yl]-cyclohexyl}-1H-indole-5-carbonitrile], for which the inhibition constant Ki on serotonin transporter was 29 nM. In addition, in experiment [1], the “5-HT1A, value given as %” value is reported as 0%.

With `CC(C)n1cc([C@H]2CC[C@@H](N3CCN(c4cccc5[nH]ccc45)CC3)CC2)c2cc(C#N)ccc21` [Example 15a, 3-{(1,4-cis)-4-[4-(1H-indol-4-yl)-piperazin-1-yl]-cyclohexyl}-1-isopropyl-1H-indole-5-carbonitrile], the Ki at serotonin transporter is 28 nM.

With `Brc1ccc2[nH]cc([C@H]3CC[C@H](N4CCN(c5cccc6[nH]ccc56)CC4)CC3)c2c1` [Example 5b, 5-Bromo-3-[trans-4-[4-(1H-indol-4-yl)-1-piperazinyl]cyclohexyl]-1H-indole], in experiment [1], the “5-HT1A, value given as %” value came to 78.7%. For the molecule `Cn1cc([C@H]2CC[C@@H](N3CCN(c4cccc5cccnc45)CC3)CC2)c2cc(F)ccc21` [Example 28, 8-{4-(1,4-cis)-4-[4-(5-Fluoro-1-methyl-1H-indol-3-yl)-cyclohexyl]-piperazin-1-yl}-quinoline], the Ki on serotonin transporter stood at 2.02 nM; in experiment [1], 25.1 nM. In turn, `COc1ccccc1N1CCN([C@H]2CC[C@@H](c3c[nH]c4ncccc43)CC2)CC1` [Example 21, 3-{(1,4-cis)-4-[4-(2-Methoxy-phenyl)-piperazin-1-yl]-cyclohexyl}-1H-pyrrolo[2,3-b]pyridine] displayed a Ki in experiment [1] of 110 nM. `Fc1cc2c(c(N3CCN([C@H]4CC[C@H](c5c[nH]c6ccc(F)cc65)CC4)CC3)c1)OCC2` [Example 32b, 5-Fluoro-3-{(1,4-trans)-4-[4-(5-fluoro-2,3-dihydro-benzofuran-7-yl)-piperazin-1-yl]-cyclohexyl}-1H-indole] displayed a Ki in experiment [1] of 49.1 nM. Take `CC(C)n1cc([C@H]2CC[C@H](N3CCN(c4cccc5[nH]ccc45)CC3)CC2)c2cc(C#N)ccc21` [Example 15b, 3-{(1,4-trans)-4-[4-(1H-indol-4-yl)-piperazin-1-yl]-cyclohexyl}-1-isopropyl-1H-indole-5-carbonitrile]: the “ST, value given as %” value on serotonin transporter (concentration not given) amounted to 16%. In the case of `Fc1ccc2[nH]cc([C@H]3CC[C@H](N4CCN(c5cccc6c5OCCO6)CC4)CC3)c2c1` [Example 24b, 3-{(1,4-trans)-4-[4-(2,3-Dihydro-benzo[1,4]dioxin-5-yl)-piperazin-1-yl]-cyclohexyl}-5-fluoro-1H-indole], the Ki was 36 nM at serotonin transporter and 11.3 nM in experiment [1]. In turn, `Fc1cc2c(c(N3CCN([C@H]4CC[C@H](c5c[nH]c6ccc(F)cc65)CC4)CC3)c1)OCCC2` [Example 31b, 5-Fluoro-3-{(1,4-trans)-4-[4-(6-fluoro-chroman-8-yl)-piperazin-1-yl]-cyclohexyl}-1H-indole] had an inhibition constant Ki in experiment [1] of 32.4 nM. `Fc1cc2c(c(N3CCN([C@H]4CC[C@@H](c5c[nH]c6ccc(F)cc65)CC4)CC3)c1)OCC2` [Example 32a, 5-Fluoro-3-{(1,4-cis)-4-[4-(5-fluoro-2,3-dihydro-benzofuran-7-yl)-piperazin-1-yl]-cyclohexyl}-1H-indole]: the Ki amounted to 14 nM at serotonin transporter and 246 nM in experiment [1].

Consider `N#Cc1ccc2[nH]cc([C@H]3CC[C@@H](N4CCN(c5cc(F)cc6c5OCC6)CC4)CC3)c2c1` [Example 33a, 3-{(1,4-cis)-4-[4-(5-Fluoro-2,3-dihydro-benzofuran-7-yl)-piperazin-1-yl]-cyclohexyl}-1H-indole-5-carbonitrile], for which the Ki on serotonin transporter was found to be 1.9 nM; in experiment [1], 98.9 nM. In experiment [1], `CCn1cc([C@H]2CC[C@H](N3CCN(c4cccc5[nH]ccc45)CC3)CC2)c2cc(C#N)ccc21` [Example 13b, 1-Ethyl-3-{(1,4-trans)-4-[4-(1H-indol-4-yl)-piperazin-1-yl]-cyclohexyl}-1H-indole-5-carbonitrile] yielded a Ki of 827 nM. For `Brc1ccc2[nH]cc([C@H]3CC[C@@H](N4CCN(c5cccc6[nH]ccc56)CC4)CC3)c2c1` [Example 5a, 5-Bromo-3-[cis-4-[4-(1H-indol-4-yl)-1-piperazinyl]cyclohexyl]-1H-indole], the “5-HT1A, value given as %” value in experiment [1] is reported as 0%.
